Results on two compounds are retold here after article PMC10829512, “Transport of metformin metabolites by guanidinium exporters of the small multidrug resistance family” (The Journal of General Physiology, 2024).

Like-named read-outs stand apart in the source and are kept apart here.

In one experiment the target is T1, Gdx-Clo (Clostridiales bacterium oral taxon 876, UniProt U2EQ00).
T1 sequence (U2EQ00 1-105): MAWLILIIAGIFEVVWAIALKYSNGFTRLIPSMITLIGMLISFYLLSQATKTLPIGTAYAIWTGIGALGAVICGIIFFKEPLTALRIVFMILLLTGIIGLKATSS
Description: SSM electrophysiology of Gdx-Clo proteoliposomes. In kind it is biochemical, Clostridales oral taxon 876. The following applies: for Transport currents in substrate screen: 2 mM substrate. The protocol: Gdx-Clo ([Kermani et al., 2018]), Gdx-Eco ([Kermani et al., 2018]), EmrE ([Kermani et al., 2022]), and Gdx-pAmi ([Martinez-Vaz et al., 2022]) construct design and purification have been described previously. […] Proteins were overexpressed in C41(DE3). Expression was induced by the addition of 0.2 mM IPTG for 3 h. Cells were lysed and extracted with 2% n-decyl-β-D-maltoside (DM) for 2 h. After pelleting insoluble cell debris, proteins were purified using cobalt affinity resin. Wash buffer contained 25 mM Tris, pH 8.5, 150 mM NaCl, and 5 mM DM. For Gdx-pAmi, NaCl concentration was increased to 500 mM NaCl. The affinity column was washed with wash buffer, then wash buffer with 10 mM imidazole, prior to elution with wash buffer with 400 mM imidazole. For Gdx-Clo and Gdx-Eco, histidine tags were cleaved with LysC (200 ng/mg of protein; 2 h at room temperature; New England Biolabs), and for all others, histidine tags were cleaved with thrombin (1 U/mg of protein, overnight at room temperature; MilliporeSigma). Proteins were further purified using a gel filtration Superdex200 column (Cytiva) equilibrated with 100 mM NaCl, 10 mM N-2-hydroxyethylpiperazine-N′-2-ethanesulfonic acid (HEPES), pH 7.5, and 5 mM DM. Purified proteins were stored at 4°C for up to 5 days before detergent binding assays. To prepare proteoliposomes for electrophysiology assays, purified protein was mixed with E. coli polar lipid extract (10 mg/ml; Avanti Polar Lipids) solubilized with 35 mM 3-[(3-cholamidopropyl)dimethylammonio]-1-propanesulfonate (CHAPS) at a protein to lipid ratio of 40 μg SMR transporter: mg lipid (1:370 protein:lipid molar ratio) prior to detergent removal by dialysis. For preparations that included Fluc-Bpe, liposomes were reconstituted with a molar ratio of 0.3 Fluc-Bpe:1 SMRGdx: 5920 lipid (1 μg Fluc-Bpe and ∼2.5 μg SMRGdx per mg lipid). For liposome transport assays, proteoliposomes were prepared similarly, except that a 2:1 mixture of 1-palmitoyl, 2-oleoylphosphatidylethanolamine (POPE) and 1-palmitoyl, 2-oleoylphosphatidylglycerol (POPG) (10 mg/ml; Avanti Polar Lipids) was used with 0.2 μg protein/mg lipid. Proteoliposomes were stored at −80°C until use.
SSM experiments were performed using SURFE^2R N1 instrument (Nanion Technologies). Sensors were prepared with a 1,2-diphytanoyl-sn-glycero-3-phosphocholine (DPhPC) lipid monolayer according to published protocols ([Bazzone et al., 2017]). Each sensor’s capacitance and conductance were verified before use (<80 nF capacitance, <50 nS conductance) using Nanion software protocols. Proteoliposome stock was diluted 1:25 in assay buffer (100 mM KCl, 100 mM KPO4, pH 7.5) prior to adsorption to the DPhPC monolayer. For substrate screening experiments, reference substrate samples (Gdm^+ for SMRGdx, and TPA^+ for SMRQac) were checked periodically to test for the stability of the sensor; if the current amplitude of the reference compound differed by >10% on one sensor, it indicated the desorption of liposomes, and the sensor was not used for further experiments. For every SSM electrophysiology experiment, we used the same general solution exchange protocol: after 2 s perfusion with a non-activating solution, we perfused substrate-containing buffer for 2 s and then returned to the equilibrium condition with a 4 s perfusion of non-activating buffer. For experiments with the S104C/A70C crosslinked variant, reducing conditions were established by the addition of 2.5 mM tris(2-carboxyethyl)phosphine (TCEP) to the activating and non-activating buffers.
We screened a series of metformin metabolites for transport using SSM electrophysiology (Fig. 2, A and B).

Another experiment has as its target Gdx-Clo A70C/S104C. Description: Tryptophan fluorescence binding to crosslinked variant. The arrangement: species or system Clostridales oral taxon 876. The following applies: A70C/S104C under oxidizing conditions, read-out: Kd, fit to a single-site binding model. The protocol:
Fluorescence emission spectra (λex = 280 nm, […]) were collected for 1 µM purified protein in assay buffer containing 200 mM NaCl, 10 mM HEPES, 10 mM bicine, 10 mM NaPO4, and 5 mM DM, with pH adjusted from 6.5 to 9.0. Substrate was added from a stock solution prepared in assay buffer. For Gdm^+ titrations, the change in fluorescence, F, as a function of substrate fit to a single site binding isotherm, ∆F=(Fmax[S]/Kd+[S]). (3)
For all SSM electrophysiology experiments, the shapes of the substrate-induced currents are characteristic of transport, rather than electrogenic presteady binding events. However, we sought to confirm this interpretation for at least one transporter/substrate pair. Using the structure of Gdx-Clo ([Kermani et al., 2020]), we introduced a pair of cysteines, A70C and S104C, that are within the crosslinking distance (∼6 Å) on the open side of the transporter, but that increase in distance when the transporter changes conformation. We expected that the formation of a crosslink would lock the transporter in one open conformation, impairing transport, with little effect on substrate binding (Fig. 2 C). […] Substrate exchange is restored in reducing conditions. […]

In the next experiment the target is Gdx-Eco (Escherichia coli, UniProt P69937). The arrangement: method as in Kermani et al., 2018; Thomas et al., 2021. The following applies: ref Kermani et al., 2018, Thomas et al., 2021; cited from earlier work.
The mark [1] stands for this setting: pH 7.5, mean ± SEM, read-out: Km determined using SSM electrophysiology.

Chain of Gdx-Eco (P69937 whole entry): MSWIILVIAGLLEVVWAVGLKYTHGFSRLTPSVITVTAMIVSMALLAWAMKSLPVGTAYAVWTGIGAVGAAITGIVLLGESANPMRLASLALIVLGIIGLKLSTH

Turning to `N=C(N)N` [Gdm^+, guanidinium], at Gdx-Clo, the “Transport currents in substrate screen” value is reported as “transported”. Moreover, the Km at Gdx-Clo (setting [1]) came to 500 ± 100 µM; on Gdx-Clo (read-out: Km value) it was 500 µM. For the same compound, the “Maximal velocity for Gdm+ relative to guanylurea” value on Gdx-Clo (substrate at fivefold Km, normalized to Fluc-Bpe fluoride current) is on record as “approximately twofold higher”. Also, the Kd on Gdx-Clo A70C/S104C was determined as 560 µM. The Proton coupling stoichiometry at Gdx-Eco is recorded as 2 H^+: 1 Gdm^+.
Take `N=C(N)NC(N)=O` [Guanylurea, guanylurea]: the “Transport currents in substrate screen” value at Gdx-Clo is listed as “transported”. In addition, the figures for the Km at Gdx-Clo (setting [1]) and on Gdx-Clo (read-out: Km value) were 220 ± 60 µM and 220 µM, respectively.
